Source: ChEMBL document CHEMBL1156163, “(18)F Labeled benzimidazole derivatives as potential radiotracer for positron emission tomography (PET) tumor imaging” (Bioorg Med Chem, 2010)

How the values were obtained:
[1] = Ratio of drug uptake in tumor to brain of mouse S180 cells xenografted Kunming mouse at 10 to 20 uCi, iv after 30 mins by gamma counting; assay type: ADME, organism-based, CCRF S-180; details: in vivo, 0.5 h
[2] = test system: Muscle tissue; test: Biodistribution in mouse S180 cells xenografted Kunming mouse muscle at 10 to 20 uCi, iv after 60 mins by gamma counting; assay type: ADME, organism-based, CCRF S-180; details: in vivo, 1 h
[3] = test system: Blood; test: Biodistribution in mouse S180 cells xenografted Kunming mouse blood at 10 to 20 uCi, iv after 30 mins by gamma counting; assay type: ADME, organism-based, CCRF S-180; details: in vivo, 0.5 h
[4] = test system: Kidney; test: Biodistribution in mouse S180 cells xenografted Kunming mouse kidney at 10 to 20 uCi, iv after 15 mins by gamma counting; assay type: ADME, organism-based, CCRF S-180; details: in vivo, 0.25 h
[5] = test system: Blood; test: Biodistribution in mouse S180 cells xenografted Kunming mouse blood at 10 to 20 uCi, iv after 15 mins by gamma counting; assay type: ADME, organism-based, CCRF S-180; details: in vivo, 0.25 h
[6] = Ratio of drug uptake in tumor to brain of mouse S180 cells xenografted Kunming mouse at 10 to 20 uCi, iv after 15 mins by gamma counting; assay type: ADME, organism-based, CCRF S-180; details: in vivo, 0.25 h
[7] = test system: Blood; test: Biodistribution in mouse S180 cells xenografted Kunming mouse blood at 10 to 20 uCi, iv after 120 mins by gamma counting; assay type: ADME, organism-based, CCRF S-180; details: in vivo, 2 h
[8] = Ratio of drug uptake in tumor to blood of mouse S180 cells xenografted Kunming mouse at 10 to 20 uCi, iv after 15 mins by gamma counting; assay type: ADME, organism-based, CCRF S-180; details: tumour, 0.25 h
[9] = test system: Pancreas; test: Biodistribution in mouse S180 cells xenografted Kunming mouse pancreas at 10 to 20 uCi, iv after 60 mins by gamma counting; assay type: ADME, organism-based, CCRF S-180; details: in vivo, 1 h
[10] = test system: Lung; test: Biodistribution in mouse S180 cells xenografted Kunming mouse lung at 10 to 20 uCi, iv after 15 mins by gamma counting; assay type: ADME, organism-based, CCRF S-180; details: in vivo, 0.25 h
[11] = Biodistribution in mouse S180 cells xenografted Kunming mouse tumor at 10 to 20 uCi, iv after 30 mins by gamma counting; assay type: ADME, organism-based, Neoplasm, CCRF S-180; details: in vivo, 0.5 h
[12] = Biodistribution in mouse S180 cells xenografted Kunming mouse tumor at 10 to 20 uCi, iv after 120 mins by gamma counting; assay type: ADME, organism-based, Neoplasm, CCRF S-180; details: in vivo, 2 h
[13] = test system: Muscle tissue; test: Biodistribution in mouse S180 cells xenografted Kunming mouse muscle at 10 to 20 uCi, iv after 30 mins by gamma counting; assay type: ADME, organism-based, CCRF S-180; details: in vivo, 0.5 h
[14] = test system: Brain; test: Biodistribution in mouse S180 cells xenografted Kunming mouse brain at 10 to 20 uCi, iv after 5 mins by gamma counting; assay type: ADME, organism-based, CCRF S-180; details: in vivo
[15] = test system: Brain; test: Biodistribution in mouse S180 cells xenografted Kunming mouse brain at 10 to 20 uCi, iv after 30 mins by gamma counting; assay type: ADME, organism-based, CCRF S-180; details: in vivo, 0.5 h
[16] = test system: Kidney; test: Biodistribution in mouse S180 cells xenografted Kunming mouse kidney at 10 to 20 uCi, iv after 5 mins by gamma counting; assay type: ADME, organism-based, CCRF S-180; details: in vivo
[17] = test system: Lung; test: Biodistribution in mouse S180 cells xenografted Kunming mouse lung at 10 to 20 uCi, iv after 30 mins by gamma counting; assay type: ADME, organism-based, CCRF S-180; details: in vivo, 0.5 h
[18] = test system: Liver; test: Biodistribution in mouse S180 cells xenografted Kunming mouse liver at 10 to 20 uCi, iv after 5 mins by gamma counting; assay type: ADME, organism-based, CCRF S-180; details: in vivo
[19] = Biodistribution in mouse S180 cells xenografted Kunming mouse tumor at 10 to 20 uCi, iv after 15 mins by gamma counting; assay type: ADME, organism-based, Neoplasm, CCRF S-180; details: in vivo, 0.25 h
[20] = test system: Brain; test: Biodistribution in mouse S180 cells xenografted Kunming mouse brain at 10 to 20 uCi, iv after 15 mins by gamma counting; assay type: ADME, organism-based, CCRF S-180; details: in vivo, 0.25 h
[21] = test system: Heart; test: Biodistribution in mouse S180 cells xenografted Kunming mouse heart at 10 to 20 uCi, iv after 30 mins by gamma counting; assay type: ADME, organism-based, CCRF S-180; details: in vivo, 0.5 h
[22] = test system: Pancreas; test: Biodistribution in mouse S180 cells xenografted Kunming mouse pancreas at 10 to 20 uCi, iv after 30 mins by gamma counting; assay type: ADME, organism-based, CCRF S-180; details: in vivo, 0.5 h
[23] = Biodistribution in mouse S180 cells xenografted Kunming mouse tumor at 10 to 20 uCi, iv after 60 mins by gamma counting; assay type: ADME, organism-based, Neoplasm, CCRF S-180; details: in vivo, 1 h
[24] = Ratio of drug uptake in tumor to muscle of mouse S180 cells xenografted Kunming mouse at 10 to 20 uCi, iv after 60 mins by gamma counting; assay type: ADME, organism-based, CCRF S-180; details: in vivo, 1 h
[25] = Ratio of drug uptake in tumor to muscle of mouse S180 cells xenografted Kunming mouse at 10 to 20 uCi, iv after 120 mins by gamma counting; assay type: ADME, organism-based, CCRF S-180; details: in vivo, 2 h
[26] = Ratio of drug uptake in tumor to muscle of mouse S180 cells xenografted Kunming mouse at 10 to 20 uCi, iv after 15 mins by gamma counting; assay type: ADME, organism-based, CCRF S-180; details: in vivo, 0.25 h
[27] = Ratio of drug uptake in tumor to muscle of mouse S180 cells xenografted Kunming mouse at 10 to 20 uCi, iv after 30 mins by gamma counting; assay type: ADME, organism-based, CCRF S-180; details: in vivo, 0.5 h
[28] = Ratio of drug uptake in tumor to brain of mouse S180 cells xenografted Kunming mouse at 10 to 20 uCi, iv after 120 mins by gamma counting; assay type: ADME, organism-based, CCRF S-180; details: in vivo, 2 h
[29] = test system: Muscle tissue; test: Biodistribution in mouse S180 cells xenografted Kunming mouse muscle at 10 to 20 uCi, iv after 5 mins by gamma counting; assay type: ADME, organism-based, CCRF S-180; details: in vivo
[30] = test system: Blood; test: Biodistribution in mouse S180 cells xenografted Kunming mouse blood at 10 to 20 uCi, iv after 60 mins by gamma counting; assay type: ADME, organism-based, CCRF S-180; details: in vivo, 1 h
[31] = test system: Pancreas; test: Biodistribution in mouse S180 cells xenografted Kunming mouse pancreas at 10 to 20 uCi, iv after 5 mins by gamma counting; assay type: ADME, organism-based, CCRF S-180; details: in vivo
[32] = test system: Muscle tissue; test: Biodistribution in mouse S180 cells xenografted Kunming mouse muscle at 10 to 20 uCi, iv after 120 mins by gamma counting; assay type: ADME, organism-based, CCRF S-180; details: in vivo, 2 h
[33] = Ratio of drug uptake in tumor to blood of mouse S180 cells xenografted Kunming mouse at 10 to 20 uCi, iv after 60 mins by gamma counting; assay type: ADME, organism-based, CCRF S-180; details: tumour, 1 h
[34] = test system: Pancreas; test: Biodistribution in mouse S180 cells xenografted Kunming mouse pancreas at 10 to 20 uCi, iv after 120 mins by gamma counting; assay type: ADME, organism-based, CCRF S-180; details: in vivo, 2 h
[35] = Ratio of drug uptake in tumor to blood of mouse S180 cells xenografted Kunming mouse at 10 to 20 uCi, iv after 5 mins by gamma counting; assay type: ADME, organism-based, CCRF S-180; details: tumour
[36] = test system: Lung; test: Biodistribution in mouse S180 cells xenografted Kunming mouse lung at 10 to 20 uCi, iv after 60 mins by gamma counting; assay type: ADME, organism-based, CCRF S-180; details: in vivo, 1 h
[37] = test system: Brain; test: Biodistribution in mouse S180 cells xenografted Kunming mouse brain at 10 to 20 uCi, iv after 120 mins by gamma counting; assay type: ADME, organism-based, CCRF S-180; details: in vivo, 2 h
[38] = test system: Liver; test: Biodistribution in mouse S180 cells xenografted Kunming mouse liver at 10 to 20 uCi, iv after 15 mins by gamma counting; assay type: ADME, organism-based, CCRF S-180; details: in vivo, 0.25 h
[39] = test system: Blood; test: Biodistribution in mouse S180 cells xenografted Kunming mouse blood at 10 to 20 uCi, iv after 5 mins by gamma counting; assay type: ADME, organism-based, CCRF S-180; details: in vivo
[40] = test system: Pancreas; test: Biodistribution in mouse S180 cells xenografted Kunming mouse pancreas at 10 to 20 uCi, iv after 15 mins by gamma counting; assay type: ADME, organism-based, CCRF S-180; details: in vivo, 0.25 h
[41] = Ratio of drug uptake in tumor to blood of mouse S180 cells xenografted Kunming mouse at 10 to 20 uCi, iv after 120 mins by gamma counting; assay type: ADME, organism-based, CCRF S-180; details: tumour, 2 h
[42] = test system: Lung; test: Biodistribution in mouse S180 cells xenografted Kunming mouse lung at 10 to 20 uCi, iv after 120 mins by gamma counting; assay type: ADME, organism-based, CCRF S-180; details: in vivo, 2 h
[43] = test system: Brain; test: Biodistribution in mouse S180 cells xenografted Kunming mouse brain at 10 to 20 uCi, iv after 60 mins by gamma counting; assay type: ADME, organism-based, CCRF S-180; details: in vivo, 1 h

- Ratio [1]: 0.61
- Drug uptake [2]: 0.97 % ID/g
- Drug uptake [3]: 0.16 % ID/g
- Drug uptake [4]: 1.04 % ID/g
- Drug uptake [5]: 0.46 % ID/g
- Ratio [6]: 0.59
- Drug uptake [7]: 0.11 % ID/g
- Ratio [8]: 3.42
- Drug uptake [9]: 0.83 % ID/g
- Drug uptake [10]: 0.77 % ID/g
- Drug uptake [11]: 1.86 % ID/g
- Drug uptake [12]: 1.7 % ID/g
- Drug uptake [13]: 1.07 % ID/g
- Drug uptake [14]: 2.4 % ID/g
- Drug uptake [15]: 3.07 % ID/g
- Drug uptake [16]: 2.16 % ID/g
- Drug uptake [17]: 0.64 % ID/g
- Drug uptake [18]: 1.35 % ID/g
- Drug uptake [19]: 1.56 % ID/g
- Drug uptake [20]: 2.63 % ID/g
- Drug uptake [21]: 2.69 % ID/g
- Drug uptake [22]: 0.9 % ID/g
- Drug uptake [23]: 2.16 % ID/g
- Ratio [24]: 2.23
- Ratio [25]: 2.2
- Ratio [26]: 1.37
- Ratio [27]: 1.75
- Ratio [28]: 1.33
- Drug uptake [29]: 1.56 % ID/g
- Drug uptake [30]: 0.11 % ID/g
- Drug uptake [31]: 1.31 % ID/g
- Drug uptake [32]: 0.78 % ID/g
- Ratio [33]: 19.47
- Drug uptake [34]: 0.78 % ID/g
- Ratio [35]: 1.17
- Drug uptake [36]: 0.57 % ID/g
- Drug uptake [37]: 1.28 % ID/g
- Drug uptake [38]: 0.47 % ID/g
- Drug uptake [39]: 1.09 % ID/g
- Drug uptake [40]: 0.95 % ID/g
- Ratio [41]: 15.85
- Drug uptake [42]: 0.52 % ID/g
- Drug uptake [43]: 2.11 % ID/g
SMILES: OC[C@H]1O[C@@H](O)[C@H]([18F])[C@@H](O)[C@@H]1O [FLUDEOXYGLUCOSE-F18]
